# Target: T1, LPA2 receptor (LPA2R) (Homo sapiens, UniProt Q9HBW0)
# T1 construct: expressed in transfected cells; host or cells: U2OS
# Experiment: LPA2R-Calciumflux assay (intracellular calcium mobilisation, FLIPR)
# Type: cell-based
# Conditions: U2OS cells recombinant expressing LPA2R; inhibition of LPA-induced Ca-flux; 10 concentrations 30 uM to 1 nM, 1% DMSO
# Text: The assay detects intra cellular calcium which is generated by cells upon activation of the LPA2 receptor by its ligand LPA. This transient calcium mobilization can be monitored using a commercial calcium detection kit (e.g. from Molecular Devices). The main component of such a kit is a dye, which becomes fluorescent when calcium is present—a transient fluorescence signal after laddition of a ligand to a test well are the result. Readers like the FLIPR (Molecular Devices) can be used to monitor such transient “Ca-flux” signals.
# The signals are calculated according to peak maximum minus base line.
# The assay is performed in microplates (384 wells per plate).
# LPA2R-Calciumflux Assay Protocol
# The assay is run according to the following procedure: • 50 uL seed cells (10000 cells/well in DMEM buffer) • Incubate 24 h at 37° C., 10% CO2 • aspirate medium • 50 uL add calcium dye 1×HBSS/HEPES buffer • incubate 1 h at 37° C. (“loading”) • equilibrate 10 min at RT • 5 uL add compounds in HEPES buffer • shake 10 sec. at 1000 rpm • incubate 15 min at RT • 20 uL add LPA (in the FLIPR Tetra) in Krebs-buffer/BSA & measurement
# The cells are seeded in DMEM buffer (DMEM, 10% FCS, 10 mM HEPES, 1% Pen/Strep).
# Dye loading is done in HBSS/HEPES buffer (100 mL 10×HBSS+20 mL 1M HEPES+880 mL water, pH 7.4)
# The LPA is added in Krebs/BSA buffer (120 mM NaCl, 5 mM KCl, 0.62 mM MgSO4, 1.8 mM CaCl2, 10 mM HEPES, 6 mM D(+)-Glucose, 0.2% BSA, pH 7.4).
# The compounds are pre-diluted in HEPES buffer (20 mM, pH 7.4), whereby the final DMSO content in the assay is kept at 1%. The compounds are pre-diluted in order to generate dose response series on the microplates. The dose response series consist of 10 concentrations for each compound from 30 uM final to 1 nM final. From all compound wells the resulting signals are referred to control wells (located on each plate besides the compound wells) in terms of % activity.
# From these % activity values—along with the corresponding compound concentrations—IC50 values are fitted for each compound using standard fitting programs such as Graphpad Prism. Here the method “log(inhibitor) vs. response—Variable slope” is used.
# T1 sequence (Q9HBW0 whole entry): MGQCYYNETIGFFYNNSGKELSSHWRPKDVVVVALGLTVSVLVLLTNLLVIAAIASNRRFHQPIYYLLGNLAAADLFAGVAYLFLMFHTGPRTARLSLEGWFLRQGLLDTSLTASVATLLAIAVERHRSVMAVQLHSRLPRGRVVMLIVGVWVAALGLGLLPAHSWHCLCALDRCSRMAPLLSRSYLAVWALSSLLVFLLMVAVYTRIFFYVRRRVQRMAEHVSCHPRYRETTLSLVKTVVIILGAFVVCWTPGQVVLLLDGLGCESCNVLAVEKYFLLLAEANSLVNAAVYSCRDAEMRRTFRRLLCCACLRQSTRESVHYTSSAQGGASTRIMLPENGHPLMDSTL
row,Structure (SMILES),IC50 [nM]
1,"Fc1ccc2[nH]c(C3CCCCN3Cc3ccccn3)cc2c1 (stereo not drawn) [compound 56, 5-Fluoro-2-(1-pyridin-2-ylmethyl-piperidin-2-yl)-1H-indole]",500 to 5000
2,"CC1CCC(c2cc3cc(F)ccc3[nH]2)N(Cc2ccc(F)cc2)C1 (stereo not drawn) [compound 61, 5-Fluoro-2-[1-(4-fluoro-benzyl)-5-methyl-piperidin-2-yl]-1H-indole]",500 to 5000
3,"Cc1ccc2c(CN3CCCCC3c3cc4cc(F)ccc4[nH]3)cn(C)c2c1 (stereo not drawn) [compound 66, 3-[2-(5-Fluoro-1H-indol-2-yl)-piperidin-1-ylmethyl]-1,6-dimethyl-1H-indole]",500 to 5000
4,"Brc1ccc(CN2CCCCC2c2cc3ccccc3[nH]2)cc1 (stereo not drawn) [compound 67, 2-[1-(4-Bromo-benzyl)-piperidin-2-yl]-1H-indole]",500 to 5000
5,"Cc1ccc(CN2CCCCC2c2cc3ccccc3[nH]2)cc1C (stereo not drawn) [compound 5, 2-[1-(3,4-Dimethyl-benzyl)-piperidin-2-yl]-1H-indole]",< 500
6,"Cc1ccc(CN2CCCCC2c2cc3ccccc3o2)cc1C (stereo not drawn) [compound 50, 2-Benzofuran-2-yl-1-(3,4-dimethyl-benzyl)-piperidine]",500 to 5000
7,"Cc1ccc(CN2CCCCC2c2nc3cc(F)ccc3[nH]2)cc1C (stereo not drawn) [compound 51, 2-[1-(3,4-Dimethyl-benzyl)-piperidin-2-yl]-5-fluoro-1H-benzo-imidazole]",< 500
8,"CC1CCCC(c2cc3cc(F)ccc3[nH]2)N1Cc1cccnc1 (stereo not drawn) [compound 41, 5-Fluoro-2-(6-methyl-1-pyridin-3-ylmethyl-piperidin-2-yl)-1H-indole]",500 to 5000
9,"CCOc1ccc(CN2C(C)CCCC2c2cc3cc(F)ccc3[nH]2)cc1 (stereo not drawn) [compound 34, 2-[1-(4-Ethoxy-benzyl)-6-methyl-piperidin-2-yl]-5-fluoro-1H-indole]",500 to 5000
10,FC(F)(F)c1ccc(CN2CCCCC2c2cc3ccccc3[nH]2)cc1 (stereo not drawn) [compound 18],500 to 5000
11,"Cc1cccc(CN2CCCCC2c2cc3ccccc3[nH]2)c1 (stereo not drawn) [compound 2, 2-[1-(3-Methyl-benzyl)-piperidin-2-yl]-1H-indole]",< 500
12,Cn1cccc1CN1CCCCC1c1cc2ccccc2[nH]1 (stereo not drawn) [compound 10],5000 to 15000
13,COc1ccc(CN2CCCCC2c2nc3cc(F)ccc3[nH]2)cc1 (stereo not drawn) [compound 47],500 to 5000
14,FC(F)(F)c1cccc(CN2CCCCC2c2cc3ccccc3[nH]2)c1 (stereo not drawn) [compound 17],5000 to 15000
15,"Cc1cc(C)c2cc(C3CCCCN3Cc3ccc(F)cc3)[nH]c2c1 (stereo not drawn) [compound 69, 2-[1-(4-Fluoro-benzyl)-piperidin-2-yl]-4,6-dimethyl-1H-indole]",500 to 5000
16,"N#Cc1ccc(CN2CCCCC2c2cc3ccccc3[nH]2)cc1 (stereo not drawn) [compound 19, 4-[2-(1H-Indol-2-yl)-piperidin-1-ylmethyl]-benzonitrile]",5000 to 15000
17,"Cc1ccc(CN2CCCCC2c2cc3c(F)ccc(F)c3[nH]2)cc1C (stereo not drawn) [compound 24, 2-[1-(3,4-Dimethyl-benzyl)-piperidin-2-yl]-4,7-difluoro-1H-indole]",500 to 5000
18,"COc1cccc(CN2CCCCC2c2cc3ccccc3[nH]2)c1 (stereo not drawn) [compound 4, 2-[1-(3-Methoxy-benzyl)-piperidin-2-yl]-1H-indole]",< 500
19,"COc1cccc(CN2CCCCC2c2cc3cc(C)ccc3[nH]2)c1 (stereo not drawn) [compound 71, 2-[1-(3-Methoxy-benzyl)-piperidin-2-yl]-5-methyl-1H-indole]",500 to 5000
20,"COc1ccc(CN2CCC(C)CC2c2cc3ccccc3[nH]2)cc1 (stereo not drawn) [compound 68, 2-[1-(4-Methoxy-benzyl)-4-methyl-piperidin-2-yl]-1H-indole]",500 to 5000
21,"CC1CCCC(c2cc3ccccc3[nH]2)N1Cc1ccccc1O (stereo not drawn) [compound 26, 2-[2-(1H-Indol-2-yl)-6-methyl-piperidin-1-ylmethyl]-phenol]",500 to 5000
22,"Fc1ccc2[nH]c(C3CCCCN3Cc3ccc(Br)cc3)cc2c1 (stereo not drawn) [compound 58, 2-[1-(4-Bromo-benzyl)-piperidin-2-yl]-5-fluoro-1H-indole]",500 to 5000
23,"Cc1cccc(CN2CCCCC2c2cc3cccc(C)c3[nH]2)c1 (stereo not drawn) [compound 20, 7-Methyl-2-[1-(3-methyl-benzyl)-piperidin-2-yl]-1H-indole]",500 to 5000
24,"Cc1cccc(CN2C(C)CCCC2c2cc3cc(F)ccc3[nH]2)c1 (stereo not drawn) [compound 30, 5-Fluoro-2-[6-methyl-1-(3-methyl-benzyl)-piperidin-2-yl]-1H-indole]",< 500
25,"CC1CCCC(c2cc3cc(F)ccc3[nH]2)N1Cc1ccc(C#N)cc1 (stereo not drawn) [compound 32, 4-[2-(5-Fluoro-1H-indol-2-yl)-6-methyl-piperidin-1-ylmethyl]-benzonitrile]",500 to 5000
26,"Fc1ccc2[nH]c(C3CCCCN3Cc3ccc(Cl)c(Cl)c3)cc2c1 (stereo not drawn) [compound 60, 2-[1-(3,4-Dichlorobenzyl)-piperidin-2-yl]-5-fluoro-1H-indole]",5000 to 15000
27,"COc1cc(CN2CCCCC2c2cc3cc(F)ccc3[nH]2)cc(OC)c1 (stereo not drawn) [compound 55, 2-[1-(3,5-Dimethoxy-benzyl)-piperidin-2-yl]-5-fluoro-1H-indole]",500 to 5000
28,"Cc1ccc(CN2CCCCC2c2nc3ccccc3s2)cc1C (stereo not drawn) [compound 52, 2-[1-(3,4-Dimethyl-benzyl)-piperidin-2-yl]-benzo-thiazole]",5000 to 15000
29,"Cc1ccc(CN2C(C)CCCC2c2cc3ccccc3[nH]2)cc1C (stereo not drawn) [compound 27, 2-[1-(3,4-Dimethyl-benzyl)-6-methyl-piperidin-2-yl]-1H-indole]",< 500
30,"Fc1ccc(CN2CCCCC2c2cc3ccccc3[nH]2)cc1 (stereo not drawn) [compound 3, 2-[1-(4-Fluoro-benzyl)-piperidin-2-yl]-1H-indole]",< 500

# Next, values leading:
row,IC50 [nM],Structure (SMILES)
1,500 to 5000,"CC(c1ccccc1)N1CCCCC1c1nc2cc(F)ccc2[nH]1 (stereo not drawn) [compound 101, 5-Fluoro-2-[1-(1-phenyl-ethyl)-piperidin-2-yl]-1H-benzo-imidazole]"
2,< 500,"COc1ccc(CN2CCCCC2c2cc3cc(Cl)ccc3[nH]2)cc1 (stereo not drawn) [compound 73, 5-Chloro-2-[1-(4-methoxy-benzyl)-piperidin-2-yl]-1H-indole]"
3,< 500,"Cc1ccc(CN2CCCCC2c2nc3ccc(Cl)cc3[nH]2)cc1C (stereo not drawn) [compound 88, 6-Chloro-2-[1-(3,4-dimethyl-benzyl)-piperidin-2-yl]-1H-benzo-imidazole]"
4,500 to 5000,FC(F)(F)c1cccc(CN2CCCCC2c2nc3ccc(Br)cc3[nH]2)c1 (stereo not drawn) [compound 92]
5,500 to 5000,"Cc1ccc(CN2CCCC[C@H]2c2nc3cc(Cl)cnc3[nH]2)cc1C [compound 141, 6-Chloro-2-[(S)-1-(3,4-dimethyl-benzyl)-piperidin-2-yl]-3H-imidazo[4,5-b]pyridine]"
6,< 500,"CCc1nc(CN2CCCCC2c2nc3cc(F)ccc3[nH]2)cs1 (stereo not drawn) [compound 121, 2-[1-(2-Ethyl-thiazol-4-ylmethyl)-piperidin-2-yl]-5-fluoro-1H-benzo-imidazole]"
7,500 to 5000,"Cc1cc(Cl)cc2nc(C3CCCCN3Cc3ccc4c(c3)C(C)(C)CCC4(C)C)[nH]c12 (stereo not drawn) [compound 97, 5-Chloro-7-methyl-2-[1-(5,5,8,8-tetramethyl-5,6,7,8-tetrahydro-naphthalen-2-ylmethyl)-piperidin-2-yl]-1H-benzo-imidazole]"
8,< 500,"Cc1ccc(CN2CCCC[C@@H]2c2cc3cc(F)ccc3[nH]2)cc1C [compound 138, 2-[(R)-1-(3,4-Dimethyl-benzyl)-piperidin-2-yl]-5-fluoro-1H-indole]"
9,500 to 5000,"N#Cc1cccc(CN2CCCCC2c2cc3cc(F)ccc3[nH]2)c1 (stereo not drawn) [compound 86, 3-[2-(5-Fluoro-1H-indol-2-yl)-piperidin-1-ylmethyl]-benzonitrile]"
10,500 to 5000,Cc1ccc(CN2CCCCC2c2nc3cc(Cl)cc(C)c3[nH]2)cc1C (stereo not drawn) [compound 105]
11,500 to 5000,"Fc1ccc2[nH]c(C3CCCCN3CCc3ccccc3)nc2c1 (stereo not drawn) [compound 104, 5-Fluoro-2-(1-phenethyl-piperidin-2-yl)-1H-benzo-imidazole]"
12,500 to 5000,Cc1ccc(CN2CCCCC2c2nc3ccc(Cl)cc3[nH]2)cc1C(F)(F)F (stereo not drawn) [compound 90]
13,< 500,"Cc1cccc(CN2CCCCC2c2nc3ccc(Br)cc3[nH]2)c1 (stereo not drawn) [compound 95, 6-Bromo-2-[1-(3-methyl-benzyl)-piperidin-2-yl]-1H-benzo-imidazole]"
14,< 500,"Cc1c(C2CCCCN2Cc2ccc(F)cc2)[nH]c2ccc(F)cc12 (stereo not drawn) [compound 75, 5-Fluoro-2-[1-(4-fluoro-benzyl)-piperidin-2-yl]-3-methyl-1H-indole]"
15,500 to 5000,"Fc1ccc(CCN2CCCCC2c2cc3cc(F)ccc3[nH]2)cc1 (stereo not drawn) [compound 111, 5-Fluoro-2-{1-[2-(4-fluoro-phenyl)-ethyl]-piperidin-2-yl}-1H-indole]"

# Source: patent US9527850B2, “Benzyl piperidine compounds as lysophosphatidic acid (LPA) receptor antagonist” (Merck Patent GmbH, priority 2011, dated 2016)
